Experimental data taken from paper PMC3330828 (2012).

Columns and labels:
caspase-3 = target: T1, caspase-3 (Homo sapiens, UniProt P42574); experiment: in vitro fluorometric enzyme assay; type: biochemical
T1 sequence (P42574 29-175): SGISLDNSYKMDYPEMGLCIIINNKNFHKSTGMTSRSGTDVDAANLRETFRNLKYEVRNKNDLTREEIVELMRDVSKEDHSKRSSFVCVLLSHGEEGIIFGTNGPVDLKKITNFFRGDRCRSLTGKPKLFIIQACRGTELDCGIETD
T1 sequence (P42574 176-277): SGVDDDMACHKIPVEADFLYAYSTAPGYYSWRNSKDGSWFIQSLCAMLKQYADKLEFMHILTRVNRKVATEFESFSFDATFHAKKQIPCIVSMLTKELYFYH

caspase-1 = target: T2, caspase-1 (Homo sapiens, UniProt P29466); experiment: in vitro fluorometric enzyme assay; type: biochemical
T2 sequence (P29466 120-297): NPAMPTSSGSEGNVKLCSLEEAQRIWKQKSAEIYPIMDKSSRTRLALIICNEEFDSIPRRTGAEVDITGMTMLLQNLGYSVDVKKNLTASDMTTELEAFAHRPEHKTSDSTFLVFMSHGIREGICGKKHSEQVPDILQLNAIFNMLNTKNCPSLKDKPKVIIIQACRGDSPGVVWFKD
T2 sequence (P29466 317-404): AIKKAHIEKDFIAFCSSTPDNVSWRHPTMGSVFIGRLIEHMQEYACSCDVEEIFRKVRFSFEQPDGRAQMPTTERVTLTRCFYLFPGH

Row | IC50 (caspase-3) | IC50 (caspase-1) | Substance
1 | 200 µM | 100 µM | berkedrimane A [compound 1]
2 | 50 µM | 90 µM | berkedrimane B [compound 2]
